Tests used:
[1] = target: T1, elastase (derived from human leukocyte) (Homo sapiens, UniProt P08246); assay: Elastase activity measurement; type: biochemical; details: compared with arctigenin; 37° C., 2 hours, absorbance at 405 nm
T1 construct: elastase (derived from human leukocyte); from tissue; host or cells: human leukocyte
T1 sequence (P08246 30-267): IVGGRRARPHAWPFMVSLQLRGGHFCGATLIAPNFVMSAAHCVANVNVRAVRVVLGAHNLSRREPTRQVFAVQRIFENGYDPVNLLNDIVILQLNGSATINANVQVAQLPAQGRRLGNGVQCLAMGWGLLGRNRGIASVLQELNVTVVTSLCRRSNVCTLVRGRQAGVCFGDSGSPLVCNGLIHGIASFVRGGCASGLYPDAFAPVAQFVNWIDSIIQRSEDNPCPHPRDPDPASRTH
Procedure: Into a 96-well plate were added 1 μL of each of the samples that was dissolved in DMSO, and 100 μL of elastase (derived from human leukocyte) adjusted to 10 μg/mL. Furthermore, to each of the wells was added to 50 μL of a substrate solution (Suc-(Ala)3-pNa) adjusted to 5 mM. A tris-HCL buffer (pH: 8.0) was used to adjust the final volume thereof to 200 μL. Under a condition at 37° C., the plate was heated for 2 hours. The absorbance of the sample at 405 nm was used as an index of the elastase activity, and the elastase inhibiting activity thereof was calculated in accordance with the following equation: The elastase inhibiting activity (%)=(the absorbance of each of the samples/the absorbance of the control)×100

B16F10 melanoma cells = assay: Melanin production inhibition test using B16; type: cell-based; details: 0.1% (w/v), 72 hours, compared with arctigenin, n=3
Procedure: After 24 hours, the culture solution was removed. […] Furthermore, the cells were cultured for 72 hours.
The absorbance thereof was measured at 475 nm.

[2] = test system: tyrosinase (originating from mushroom); assay: Tyrosinase inhibiting activity measurement; type: biochemical; details: test concentration 0.01%, compared with arctigenin
Procedure: To each well of a 96-well plate were added 1 μL of a 1 w/w % of each of the samples (test concentration: 0.01%) that was dissolved in DMSO, 20 μL of a 400 U/mL of a tyrosinase solution (originating from mushroom), and 79 μL of distilled water. Thereto were added a reaction solution (0.1 mg/mL L-tyrosine solution (Wako Pure Chemical Industries, Ltd.)) and 100 μL of a 1.3-mM copper sulfate pentahydrate solution (Wako Pure Chemical Industries, Ltd.)/a 60-mM phosphate buffer (pH: 6.0). The resultant was incubated at 37° C. for one hour. Thereafter, the absorbance of the sample was measured at 640 nm. This was used as a measured value (testing sample measured value or control measured value). The tyrosinase inhibiting activity (%)=(the absorbance of each of the samples/the absorbance of the control)×100

[3] = test system: Endothelin-1 (ET-1) production from human epidermal keratinocytes; assay: Evaluation on production inhibition of endothelin-1 (ET-1) in UVB-irradiated keratinocytes (ELISA); type: cell-based; details: UVB 80 mJ/cm^2, supernatant 48 hours after irradiation, relative to agent-free UVB control = 100
Procedure: Human epidermal keratinocytes were inoculated into 6-well plates to give an amount of 100000 cells per well, and then the cells were cultured for 3 days until the cells turned confluent. After it was verified that the cells turned confluent, their media were each substituted with PBS (−). The individual plates were irradiated with UVB at an irradiation intensity of 80 mJ/cm^2. After the irradiation with the UVB, DMEM in which arctigenin or each of the arctigenin derivatives was dissolved was added to one of the individual plates. After 48 hours from the irradiation, the supernatant (in the one plate) was collected, and the supernatant was centrifuged at 3000 rpm for 5 minutes. Furthermore, the supernatant therein was collected to prepare specimens for ELISA. As a control, a sample was used which was obtained by collecting a supernatant of an agent-free plate irradiated with UVB irradiation. A device used for measuring ET-1 was an Endthelin-1 Human EIA kit (manufactured by Assay Designs, Inc.). […] In each of FIGS. 1 to 3 and FIGS. 6 to 8, one of its vertical axes represents a relative value of each of the specimens when the ET-1 production amount of the control was regarded as 100. In each of FIGS. 1 to 3 and FIGS. 6 to 8, its graph line represents the respective cell survival rates (of the specimens) when the value of the control was regarded as 100%.

| Compound | elastase inhibiting capability [1] | inhibition of the production of melanin per living cell (B16F10 melanoma cells) | tyrosinase inhibiting capability [2] | inhibition of the production of ET-1 [3] |
| --- | --- | --- | --- | --- |
| COc1ccc(C[C@H]2COC(=O)[C@@H]2Cc2ccc(OC(C)=O)c(OC)c2)cc1OC [Example 1, Acetoxyarctigenin] | far stronger elastase inhibiting capability than arctigenin |  |  |  |
| Arctigenin Propionate [Example 2] | far stronger elastase inhibiting capability than arctigenin | more significantly inhibited the production of melanin per living cell than arctigenin |  |  |
| Palmitate Arctigenin [Comparative Example 1] |  |  | no tyrosinase inhibiting capability | does not significantly inhibit the production of ET-1 |
